Measured values as given in patent US20190000079A1, “Methods and Formulation for Treatment of Nuts, Seeds, Grains, Cereals, Plant Growth Media, and Plants” (Lipotec Laboratories, LLC, priority 2015, published 2019).

Experiments:
Experiment in all cases: Growth experiment, coated vs uncoated seeds planted in soil
soybeans = assay type: in vivo, soybean
Excerpt: (§1) Groups of coated and uncoated soybeans, corn, sunflower, and turfgrass were planted in soil and monitored for germination.

corn = assay type: in vivo
Excerpt: as §1

sunflower = assay type: in vivo
Excerpt: as §1

Structure (SMILES): COc1cc(/C=C/C(=O)CC(=O)/C=C/c2ccc(O)c(OC)c2)ccc1O [curcumin, Curcumin]
- germination time of coated seeds (soybeans; soybean seeds coated with DMSO and curcumin, planted in soil, same as uncoated): 2 days
- height and diameter, coated vs uncoated (soybeans; soybean, after 3 weeks): equal height and diameter
- germination time of coated seeds (corn; corn seeds coated with DMSO and curcumin, planted in soil, same as uncoated): 2 days
- height and diameter, coated vs uncoated (corn; corn, after 3 weeks): equal height and diameter
- germination time of coated seeds (sunflower; sunflower seeds coated with DMSO and curcumin, planted in soil, same as uncoated): 2 days
- height and diameter, coated vs uncoated (sunflower; sunflower, after 3 weeks): equal height and diameter
